Results from ChEMBL document CHEMBL5465560, “Selectivity Literature for EUbOPEN Chemogenomic Library” (2024).

Tests used:
[1] = target: T1, Inhibitor of nuclear factor kappa-B kinase subunit beta (Homo sapiens) (UniProt O14920); test: Selectivity interaction (KinomeScan (DiscoverX)) EUB0001079a IKBKB; conditions: at 1 µM
T1 sequence (whole entry): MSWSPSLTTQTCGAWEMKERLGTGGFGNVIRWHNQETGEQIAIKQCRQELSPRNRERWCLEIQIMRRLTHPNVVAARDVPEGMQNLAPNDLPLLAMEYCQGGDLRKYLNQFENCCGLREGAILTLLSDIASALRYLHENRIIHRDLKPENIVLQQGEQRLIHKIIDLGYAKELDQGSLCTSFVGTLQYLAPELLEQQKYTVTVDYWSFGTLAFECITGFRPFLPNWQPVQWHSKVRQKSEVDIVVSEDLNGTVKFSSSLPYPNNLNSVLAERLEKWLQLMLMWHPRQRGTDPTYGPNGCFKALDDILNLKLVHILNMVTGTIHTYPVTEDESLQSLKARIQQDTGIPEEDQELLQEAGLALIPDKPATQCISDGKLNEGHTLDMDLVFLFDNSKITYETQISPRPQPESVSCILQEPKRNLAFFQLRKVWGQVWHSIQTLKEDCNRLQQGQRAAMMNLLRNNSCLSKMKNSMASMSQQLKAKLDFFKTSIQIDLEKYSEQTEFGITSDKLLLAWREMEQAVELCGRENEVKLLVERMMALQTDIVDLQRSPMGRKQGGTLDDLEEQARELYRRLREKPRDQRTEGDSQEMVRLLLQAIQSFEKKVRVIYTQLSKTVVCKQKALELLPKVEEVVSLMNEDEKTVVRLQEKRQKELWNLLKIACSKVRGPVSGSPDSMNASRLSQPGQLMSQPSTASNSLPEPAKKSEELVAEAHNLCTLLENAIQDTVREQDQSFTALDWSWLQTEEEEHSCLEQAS

[2] = target: T2, Serine/threonine-protein kinase haspin (Homo sapiens) (UniProt Q8TF76); test: Selectivity interaction (KinomeScan (DiscoverX)) EUB0000607a GSG2; conditions: at 10 µM
T2 sequence (whole entry): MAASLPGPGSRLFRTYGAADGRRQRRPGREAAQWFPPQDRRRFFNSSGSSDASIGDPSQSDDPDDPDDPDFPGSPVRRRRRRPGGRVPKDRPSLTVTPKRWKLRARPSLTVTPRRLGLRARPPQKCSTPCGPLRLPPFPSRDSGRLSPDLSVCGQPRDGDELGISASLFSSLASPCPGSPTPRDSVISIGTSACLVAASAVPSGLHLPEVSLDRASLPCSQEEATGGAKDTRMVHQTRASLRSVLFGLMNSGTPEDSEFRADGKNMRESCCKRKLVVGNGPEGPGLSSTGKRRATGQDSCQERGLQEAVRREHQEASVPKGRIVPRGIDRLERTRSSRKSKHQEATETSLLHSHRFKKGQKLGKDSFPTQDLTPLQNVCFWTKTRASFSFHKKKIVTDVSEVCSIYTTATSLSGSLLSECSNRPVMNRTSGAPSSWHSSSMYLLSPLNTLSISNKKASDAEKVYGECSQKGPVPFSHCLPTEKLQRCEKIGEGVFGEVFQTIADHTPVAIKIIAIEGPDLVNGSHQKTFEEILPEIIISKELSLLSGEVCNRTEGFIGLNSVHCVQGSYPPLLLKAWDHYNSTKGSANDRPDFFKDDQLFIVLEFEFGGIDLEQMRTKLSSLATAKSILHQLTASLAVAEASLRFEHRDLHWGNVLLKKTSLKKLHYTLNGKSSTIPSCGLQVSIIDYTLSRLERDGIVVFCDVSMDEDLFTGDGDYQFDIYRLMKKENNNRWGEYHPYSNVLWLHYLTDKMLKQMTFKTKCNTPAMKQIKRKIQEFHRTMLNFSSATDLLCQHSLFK

[3] = target: Phosphatidylinositol 4,5-bisphosphate 3-kinase catalytic subunit beta isoform (Homo sapiens) (UniProt P42338); test: Selectivity interaction (KinomeScan (DiscoverX)) EUB0001619a PIK3CB; conditions: at 1 µM
Sequence of Phosphatidylinositol 4,5-bisphosphate 3-kinase catalytic subunit beta isoform (Homo sapiens) (P42338 whole entry, looked up, canonical isoform): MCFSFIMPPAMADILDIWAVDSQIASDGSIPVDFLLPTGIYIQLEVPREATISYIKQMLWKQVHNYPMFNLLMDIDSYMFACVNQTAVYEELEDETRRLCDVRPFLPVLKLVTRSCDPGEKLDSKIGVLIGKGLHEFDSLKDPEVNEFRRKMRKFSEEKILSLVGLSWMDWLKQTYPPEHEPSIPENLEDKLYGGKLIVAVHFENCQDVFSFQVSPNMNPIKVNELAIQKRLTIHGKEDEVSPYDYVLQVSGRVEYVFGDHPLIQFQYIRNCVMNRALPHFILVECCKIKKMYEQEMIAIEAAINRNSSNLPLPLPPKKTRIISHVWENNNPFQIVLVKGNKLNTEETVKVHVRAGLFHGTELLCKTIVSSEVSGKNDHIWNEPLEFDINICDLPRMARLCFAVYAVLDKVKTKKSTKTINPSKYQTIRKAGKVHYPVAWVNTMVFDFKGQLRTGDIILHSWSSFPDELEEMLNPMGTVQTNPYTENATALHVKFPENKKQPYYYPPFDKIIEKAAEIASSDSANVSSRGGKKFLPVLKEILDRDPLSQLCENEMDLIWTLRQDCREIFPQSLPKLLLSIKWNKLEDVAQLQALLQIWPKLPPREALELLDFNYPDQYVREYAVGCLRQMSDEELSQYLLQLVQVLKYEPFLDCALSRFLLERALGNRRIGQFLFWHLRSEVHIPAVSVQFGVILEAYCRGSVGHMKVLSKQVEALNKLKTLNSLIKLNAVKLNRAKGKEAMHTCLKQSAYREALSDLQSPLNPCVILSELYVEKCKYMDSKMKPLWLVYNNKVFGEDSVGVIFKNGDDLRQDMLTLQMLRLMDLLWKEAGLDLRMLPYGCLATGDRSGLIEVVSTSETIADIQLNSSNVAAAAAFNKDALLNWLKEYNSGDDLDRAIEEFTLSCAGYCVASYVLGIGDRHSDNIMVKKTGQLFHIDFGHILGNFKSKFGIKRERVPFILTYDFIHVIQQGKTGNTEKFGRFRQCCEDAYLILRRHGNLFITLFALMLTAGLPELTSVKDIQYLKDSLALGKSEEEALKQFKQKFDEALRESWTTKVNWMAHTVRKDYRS

[4] = target: T3, Mitogen-activated protein kinase kinase kinase 12 (Homo sapiens) (UniProt Q12852); test: Selectivity interaction (KinomeScan (DiscoverX)) EUB0000666a MAP3K12; conditions: at 10 µM
T3 sequence (whole entry): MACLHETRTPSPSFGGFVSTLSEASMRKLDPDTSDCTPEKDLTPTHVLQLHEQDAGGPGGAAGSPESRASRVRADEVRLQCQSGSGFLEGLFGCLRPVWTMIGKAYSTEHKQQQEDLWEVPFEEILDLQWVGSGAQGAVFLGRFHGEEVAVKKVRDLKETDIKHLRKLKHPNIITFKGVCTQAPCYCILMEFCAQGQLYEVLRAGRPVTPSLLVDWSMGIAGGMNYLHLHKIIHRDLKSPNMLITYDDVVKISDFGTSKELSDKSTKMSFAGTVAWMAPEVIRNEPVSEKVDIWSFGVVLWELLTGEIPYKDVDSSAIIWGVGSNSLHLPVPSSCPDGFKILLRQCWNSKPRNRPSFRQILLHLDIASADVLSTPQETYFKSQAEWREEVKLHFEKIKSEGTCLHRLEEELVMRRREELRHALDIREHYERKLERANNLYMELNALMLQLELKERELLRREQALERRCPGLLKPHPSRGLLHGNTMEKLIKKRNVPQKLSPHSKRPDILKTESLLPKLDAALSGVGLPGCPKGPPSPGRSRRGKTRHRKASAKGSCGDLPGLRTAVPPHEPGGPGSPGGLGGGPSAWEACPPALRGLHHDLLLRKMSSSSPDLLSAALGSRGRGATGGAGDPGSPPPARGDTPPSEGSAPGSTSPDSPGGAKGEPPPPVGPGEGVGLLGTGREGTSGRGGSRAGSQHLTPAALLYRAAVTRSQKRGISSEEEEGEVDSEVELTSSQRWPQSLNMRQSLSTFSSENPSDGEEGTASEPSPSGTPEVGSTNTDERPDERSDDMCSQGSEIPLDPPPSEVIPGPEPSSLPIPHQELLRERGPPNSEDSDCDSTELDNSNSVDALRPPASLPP

[5] = target: Serine/threonine-protein kinase pim-1 (Homo sapiens, UniProt P11309); test: Selectivity interaction (KinomeScan (DiscoverX)) EUB0000092b PIM1; conditions: at 10 µM
Sequence of Serine/threonine-protein kinase pim-1 (P11309 whole entry, looked up): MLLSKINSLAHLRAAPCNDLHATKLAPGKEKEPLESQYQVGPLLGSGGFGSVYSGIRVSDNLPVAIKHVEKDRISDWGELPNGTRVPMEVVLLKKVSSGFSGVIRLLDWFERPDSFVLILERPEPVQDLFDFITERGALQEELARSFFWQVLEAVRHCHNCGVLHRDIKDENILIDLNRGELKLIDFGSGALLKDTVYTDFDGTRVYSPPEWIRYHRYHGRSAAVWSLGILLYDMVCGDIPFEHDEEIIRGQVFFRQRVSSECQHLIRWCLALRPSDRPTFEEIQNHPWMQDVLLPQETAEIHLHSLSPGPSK

In the case of `Nc1cnc(N2CCc3cc(S(=O)(=O)Nc4c(F)cc(Cl)cc4F)cc(N4CCCC4=O)c32)nc1` [TP-020n], the % of control [1] is reported as 96%.
For `CNC(=O)Nc1ccc(-c2nc(N3CC4CCC(C3)O4)c3cnn(C4CCC5(CC4)OCCO5)c3n2)cc1`, the % of control [2] was 100%.
For `N#Cc1cccc(-c2c[nH]c3ncnc(N4CCOCC4)c23)c1`, the % of control [3] was 100%.
Compound `O=C(NOC[C@H](O)CO)c1ccc(F)c(F)c1Nc1ccc(I)cc1F` has a % of control [4] of 78%.
With `CCC(=O)N1CCN(c2ccc(-n3c(=O)ccc4cnc5ccc(-c6cnc7ccccc7c6)cc5c43)cc2C(F)(F)F)CC1` the % of control [5] was 80%.
